Values of other authors in patent publication US20120035103A1 (priority 2010, published 2012).

Tested on: cells that line the nasal cavity

CCCCCCCCCCCCCCO[C@@H]1O[C@H](CO)[C@@H](O[C@H]2O[C@H](CO)[C@@H](O)[C@H](O)[C@H]2O)[C@H](O)[C@H]1O [TDM, Tetradecyl-β-d-maltoside]
Toxicity to the cells that line the nasal cavity (0.125% TDM): minimal toxicity | Appearance of the cells that line the nasal cavity (0.50% TDM, versus 0.125% TDM): became more evident
